Test results published in US9580430B2, “9H-pyrimido[4,5-B]indoles and related analogs as BET bromodomain inhibitors” (THE REGENTS OF THE UNIVERSITY OF MICHIGAN, priority 2014, dated 2017).

Assays:
recombinant BRD4 BD1 = molecular target: T1, recombinant BRD4 BD1 (Homo sapiens, UniProt O60885); experiment: Competitive fluorescence-polarization (FP) binding assay, BRD4 BD1; settings: competitive FP assay; protein 10 nM, probe […]; read-out: IC50 (nM) BRD4 BD1; also: probe 1.5 nM
T1 construct: for recombinant BRD4 BD1 and BRD4 BD2 proteins
In short: (§1)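 FP competition with FAM-labelled probe (ZBA248 or BRD-1F) against preincubated protein/probe complex; BD1 at 10 nM and BD2 at 6 nM final, in 100 mM potassium phosphate pH 6.5, 0.01% Triton X-100. 30 min, room temperature. IC50 by nonlinear regression; Ki also derived, using probe Kd from protein saturation.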

recombinant BRD4 BD2 = molecular target: T2, recombinant BRD4 BD2 (Homo sapiens, UniProt O60885); experiment: Competitive fluorescence-polarization (FP) binding assay, BRD4 BD2; settings: competitive FP assay; protein 6 nM, probe […]; read-out: IC50 (nM) BRD4 BD2; also: probe 1.5 nM
T2 construct: for recombinant BRD4 BD1 and BRD4 BD2 proteins
In short: as §1

MOLM-13 = experiment: Cell growth inhibition, MOLM-13 leukemia cells (CellTiter-Glo); type: cell-based; settings: Homo sapiens, MOLM-13, 96 h; 4 days; read-out: IC50 (nM) MOLM-13 Cell Line (CellTiter-Glo assay)
In short: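 MOLM-13 leukemia cells treated with compounds; viability read by CellTiter-Glo luminescence after 10-20 min reagent incubation at room temperature. IC50 derived from luminescent signal.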

MDA-MB-436 = experiment: Cell growth inhibition, MDA-MB-436 breast cancer cells (WST-8); type: cell-based; settings: Homo sapiens, MDA-MB-436, 96 h; 4 days; read-out: IC50 (nM) MDA-MB-436 Cell Line (WST assay)
In short: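 IC50 was computed from WST-8-based cell counting in MDA-MB-436 cells, with absorbance read at 450 nm.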

| SMILES | IC50 (recombinant BRD4 BD1) [nM] | IC50 (recombinant BRD4 BD2) [nM] | IC50 (MOLM-13) [nM] | IC50 (MDA-MB-436) [nM] |
| --- | --- | --- | --- | --- |
| COc1cc2c(cc1-c1c(C)noc1C)[nH]c1nc(C)nc(Nc3cc(C)cc(C)c3)c12 [Cpd. No. 237, 7-(3,5-dimethylisoxazol-4-yl)-N-(3,5-dimethylphenyl)-6-methoxy-2-methyl-9H-pyrimido[4,5-b]indol-4-amine] | 10 | 5 | 41 | 72 |
| COc1cc2c(cc1-c1c(C)noc1C)[nH]c1nc(C)nc(Nc3c(C)c(C)nn3C3CC3)c12 [Cpd. No. 188, N-(1-cyclopropyl-3,4-dimethyl-1H-pyrazol-5-yl)-7-(3,5-dimethylisoxazol-4-yl)-6-methoxy-2-methyl-9H-pyrimido[4,5-b]indol-4-amine] | 2.1 | 3.7 | 3.2 | 12.8 |
| COc1cc2c(cc1-c1c(C)noc1C)[nH]c1nc(C)nc(Nc3nn(C)cc3C(C)C)c12 [compound 78, 7-(3,5-dimethylisoxazol-4-yl)-N-(4-isopropyl-1-methyl-1H-pyrazol-3-yl)-6-methoxy-2-methyl-9H-pyrimido[4,5-b] indol-4-amine] | 16 | 63.5 | 97.4 | 271 |
| CCn1nc(C2CC2)c(C)c1Nc1nc(C)nc2[nH]c3cc(-c4c(C)noc4C)c(OC)cc3c12 [Cpd. No. 145, N-(3-Cyclopropyl-1-ethyl-4-methyl-1H-pyrazol-5-yl)-7-(3,5-dimethylisoxazol-4-yl)-6-methoxy-2-methyl-9H-pyrimido[4,5-b]indol-4-amine] | 18.9 | 56.9 | 69.5 | 170 |
| COc1cc2c(cc1-c1c(C)noc1C)[nH]c1nc(C)nc(Nc3c(C)nn(C(C)C)c3C)c12 [Cpd. No. 36, 7-(3,5-dimethylisoxazol-4-yl)-N-(1-isopropyl-3,5-dimethyl-1H-pyrazol-4-yl)-6-methoxy-2-methyl-9H-pyrimido[4,5-b]indol-4-amine] | 68.5 | 92.6 | 103 | 236 |
| COc1cc2c(cc1-c1c(C)noc1C)[nH]c1nc(C)nc(Nc3ccnn3C)c12 [Cpd. No. 172, 7-(3,5-dimethylisoxazol-4-yl)-6-methoxy-2-methyl-N-(1-methyl-1H-pyrazol-5-yl)-9H-pyrimido[4,5-b]indol-4-amine] | 57.2 | 49.5 | 453 | 634 |
| COc1cc2c(cc1-c1c(C)noc1C)[nH]c1nc(C)nc(Nc3cncc(Cl)c3)c12 [Cpd. No. 106, N-(5-chloropyridin-3-yl)-7-(3,5-dimethylisoxazol-4-yl)-6-methoxy-2-methyl-9H-pyrimido[4,5-b]indol-4-amine] | 1410 | 619 | 56 | 618 |
| CCn1nc(C(F)(F)F)cc1Nc1nc(C)nc2[nH]c3cc(-c4c(C)noc4C)c(OC)cc3c12 [Cpd. No. 146, 7-(3,5-Dimethylisoxazol-4-yl)-N-(1-ethyl-3-(trifluoromethyl)-1H-pyrazol-5-yl)-6-methoxy-2-methyl-9H-pyrimido[4,5-b]indol-4-amine] | 13.7 | 7.7 | 26 | 39.2 |
| COc1cc2c(cc1-c1c(C)noc1C)[nH]c1nc(C)nc(Nc3cc(C)nn3C3CCCC3)c12 [Cpd. No. 118, N-(1-Cyclopentyl-3-methyl-1H-pyrazol-5-yl)-7-(3,5-dimethylisoxazol-4-yl)-6-methoxy-2-methyl-9H-pyrimido[4,5-b]indol-4-amine] | 4.2 | 3.4 | 17.7 | 25 |
| COc1cc2c(cc1-c1c(C)noc1C)[nH]c1nc(C)nc(Nc3ccnn3C3CCCC3)c12 [Cpd. No. 178, N-(1-cyclopentyl-1H-pyrazol-5-yl)-7-(3,5-dimethylisoxazol-4-yl)-6-methoxy-2-methyl-9H-pyrimido[4,5-b]indol-4-amine] | 9 | 0.6 | 22.5 | 52.9 |
| COc1cc2c(cc1-c1c(C)noc1C)[nH]c1nc(C)nc(Nc3ccc(F)c(Cl)c3)c12 [Cpd. No. 107, N-(3-chloro-4-fluorophenyl)-7-(3,5-dimethylisoxazol-4-yl)-6-methoxy-2-methyl-9H-pyrimido[4,5-b]indol-4-amine] | 92 | 33 | 8 | 229 |
| COc1cc2c(cc1-c1c(C)noc1C)[nH]c1nc(C)nc(Nc3cc(C)nn3C3CC3)c12 [Cpd. No. 192, N-(1-cyclopropyl-3-methyl-1H-pyrazol-5-yl)-7-(3,5-dimethylisoxazol-4-yl)-6-methoxy-2-methyl-9H-pyrimido[4,5-b]indol-4-amine] | 30.1 | 114 | 114 | 422 |
| COc1cc2c(cc1-c1c(C)noc1C)[nH]c1nc(C)nc(Nc3c(C(C)C)nn(C)c3C(C)C)c12 [Cpd. No. 242, N-(3,5-diisopropyl-1-methyl-1H-pyrazol-4-yl)-7-(3,5-dimethylisoxazol-4-yl)-6-methoxy-2-methyl-9H-pyrimido[4,5-b]indol-4-amine] | 9 | 12 | 24 | 47 |
| COc1cc2c(cc1-c1c(C)noc1C)[nH]c1nc(C)nc(Nc3cnn4cccnc34)c12 [Cpd. No. 16, 7-(3,5-Dimethylisoxazol-4-yl)-6-methoxy-2-methyl-N-(pyrazolo[1,5-a]pyrimidin-3-yl)-9H-pyrimido[4,5-b]indol-4-amine] | 248 | 194 | 14.6 | 529 |
| COc1cc2c(cc1-c1c(C)noc1C)[nH]c1nc(C)nc(Nc3cn(C)c4ncccc34)c12 [Cpd. No. 227, 7-(3,5-dimethylisoxazol-4-yl)-6-methoxy-2-methyl-N-(1-methyl-1H-pyrrolo[2,3-b]pyridin-3-yl)-9H-pyrimido[4,5-b]indol-4-amine] | 14 | 22 | 31 | 62 |
| COc1cc2c(cc1-c1c(C)noc1C)[nH]c1nc(C)nc(NC3CCCCC3)c12 [Cpd. No. 112, N-cyclohexyl-7-(3,5-dimethylisoxazol-4-yl)-6-methoxy-2-methyl-9H-pyrimido[4,5-b]indol-4-amine] | 460 | 395 | 15000 | 2430 |
| COc1cc2c(cc1-c1c(C)noc1C)[nH]c1nc(C)nc(Nc3cnn(C)c3C)c12 [Cpd. No. 170, N-(1,5-dimethyl-1H-pyrazol-4-yl)-7-(3,5-dimethylisoxazol-4-yl)-6-methoxy-2-methyl-9H-pyrimido[4,5-b]indol-4-amine] | 44.9 | 56.5 | 131 | 222 |
| COc1cc2c(cc1-c1c(C)noc1C)[nH]c1nc(C)nc(Nc3c(C)nn4ccccc34)c12 [Cpd. No. 15, 7-(3,5-Dimethylisoxazol-4-yl)-6-methoxy-2-methyl-N-(2-methylpyrazolo[1,5-a]pyridin-3-yl)-9H-pyrimido[4,5-b]indol-4-amine] | 10.1 | 18.8 | 5.1 | 33.7 |
| COc1cc2c(cc1-c1c(C)noc1C)[nH]c1nc(C)nc(Nc3n[nH]c(C)c3-c3ccccc3)c12 [Cpd. No. 5, 7-(3,5-Dimethylisoxazol-4-yl)-6-methoxy-2-methyl-N-(5-methyl-4-phenyl-1H-pyrazol-3-yl)-9H-pyrimido[4,5-b]indol-4-amine] | 340 | 381 | 475 | 719 |
| COc1cc2c(cc1-c1c(C)noc1C)[nH]c1nc(C)nc(Nc3c(C)cnn3C3CCCC3)c12 [Cpd. No. 135, N-(1-Cyclopentyl-4-methyl-1H-pyrazol-5-yl)-7-(3,5-dimethylisoxazol-4-yl)-6-methoxy-2-methyl-9H-pyrimido[4,5-b]indol-4-amine] | 5.6 | 1.3 | 30.2 | 57.6 |
| COc1cc2c(cc1-c1c(C)noc1C)[nH]c1nc(C)nc(Nc3c(C)noc3C)c12 [Cpd. No. 215, N-(7-(3,5-dimethylisoxazol-4-yl)-6-methoxy-2-methyl-9H-pyrimido[4,5-b]indol-4-yl)-3,5-dimethylisoxazol-4-amine] | 128 | 57 | 318 | 360 |
| COc1cc2c(cc1-c1c(C)noc1C)[nH]c1nc(C)nc(Nc3cn(C)nc3C)c12 [Cpd. No. 34, N-(1,3-dimethyl-1H-pyrazol-4-yl)-7-(3,5-dimethylisoxazol-4-yl)-6-methoxy-2-methyl-9H-pyrimido[4,5-b]indol-4-amine] | 30.2 | 28.7 | 32.7 | 97.6 |
| COc1cc2c(cc1-c1c(C)noc1C)[nH]c1nc(C)nc(Nc3c(C)cnn3C(C)C)c12 [Cpd. No. 37, 7-(3,5-dimethylisoxazol-4-yl)-N-(1-isopropyl-4-methyl-1H-pyrazol-5-yl)-6-methoxy-2-methyl-9H-pyrimido[4,5-b]indol-4-amine] | 12.1 | 6.5 | 54.1 | 56.2 |
